In ChEMBL document CHEMBL6103539, “A critical analysis of design, binding pattern and SAR of benzo-fused heteronuclear compounds as VEGFR-2 inhibitors” (Bioorg Med Chem, 2024) one finds IC50, inhibition and GI data, which are given here for 19 molecules.

The IC50 is the concentration needed to halve the response being measured. A word on the inhibition: it is the relative decrease from the control value, in per cent.

≈ marks a conversion by molar mass, not a printed value.

The subject of assay [1] is HepG2. In words: Anticancer activity against human HepG2 cells assessed as reduction in cell viability measured after 72 hrs by MTT assay. It counts as functional, cell-based. To be noted: HepG2, 72 h.
Assay [2] deals with MCF7. In words: Cytotoxicity against human MCF7 cells assessed as reduction in cell viability incubated for 48 hrs by MTT assay. Type of assay: functional, cell-based. To be noted: MCF7, 48 h. Background: Tetrazolium dyes change colour on reduction, which living cells bring about.
For assay [3], the system named is MCF7. Description: Cytotoxicity against human MCF7 cells. Type of assay: functional, cell-based.
Assay [4] relates to DU-145. In words: Cytotoxicity against human DU-145 cells. It counts as functional, cell-based.
Assay [5] relates to A549. Description: Cytotoxicity against human A549 cells. It counts as functional, cell-based.
Assay [6] has as its system HepG2. Description: cells. To be noted: Homo sapiens, HepG2, 72 h.
Description: Cytotoxicity against human HepG2 cells assessed as reduction in cell viability incubated for 72 hrs by MTT assay
Assay [7] relates to HCT-116. Description: cells. To be noted: Homo sapiens, HCT-116, 72 h.
Description: Cytotoxicity against human HCT-116 cells assessed as reduction in cell viability incubated for 72 hrs by MTT assay
Assay [8] has as its system MCF7. Description: cells. To be noted: Homo sapiens, MCF7, 72 h.
Description: Cytotoxicity against human MCF7 cells assessed as reduction in cell viability incubated for 72 hrs by MTT assay
Assay [9] deals with T1, Vascular endothelial growth factor receptor 2 (Homo sapiens, UniProt P35968). Description: Inhibition of VEGFR-2 in human MCF7 cells by ELISA method. Type of assay: cell-based. Background: An ELISA detects its analyte on a solid surface through an enzyme-linked reagent.
T1 sequence (P35968 whole entry): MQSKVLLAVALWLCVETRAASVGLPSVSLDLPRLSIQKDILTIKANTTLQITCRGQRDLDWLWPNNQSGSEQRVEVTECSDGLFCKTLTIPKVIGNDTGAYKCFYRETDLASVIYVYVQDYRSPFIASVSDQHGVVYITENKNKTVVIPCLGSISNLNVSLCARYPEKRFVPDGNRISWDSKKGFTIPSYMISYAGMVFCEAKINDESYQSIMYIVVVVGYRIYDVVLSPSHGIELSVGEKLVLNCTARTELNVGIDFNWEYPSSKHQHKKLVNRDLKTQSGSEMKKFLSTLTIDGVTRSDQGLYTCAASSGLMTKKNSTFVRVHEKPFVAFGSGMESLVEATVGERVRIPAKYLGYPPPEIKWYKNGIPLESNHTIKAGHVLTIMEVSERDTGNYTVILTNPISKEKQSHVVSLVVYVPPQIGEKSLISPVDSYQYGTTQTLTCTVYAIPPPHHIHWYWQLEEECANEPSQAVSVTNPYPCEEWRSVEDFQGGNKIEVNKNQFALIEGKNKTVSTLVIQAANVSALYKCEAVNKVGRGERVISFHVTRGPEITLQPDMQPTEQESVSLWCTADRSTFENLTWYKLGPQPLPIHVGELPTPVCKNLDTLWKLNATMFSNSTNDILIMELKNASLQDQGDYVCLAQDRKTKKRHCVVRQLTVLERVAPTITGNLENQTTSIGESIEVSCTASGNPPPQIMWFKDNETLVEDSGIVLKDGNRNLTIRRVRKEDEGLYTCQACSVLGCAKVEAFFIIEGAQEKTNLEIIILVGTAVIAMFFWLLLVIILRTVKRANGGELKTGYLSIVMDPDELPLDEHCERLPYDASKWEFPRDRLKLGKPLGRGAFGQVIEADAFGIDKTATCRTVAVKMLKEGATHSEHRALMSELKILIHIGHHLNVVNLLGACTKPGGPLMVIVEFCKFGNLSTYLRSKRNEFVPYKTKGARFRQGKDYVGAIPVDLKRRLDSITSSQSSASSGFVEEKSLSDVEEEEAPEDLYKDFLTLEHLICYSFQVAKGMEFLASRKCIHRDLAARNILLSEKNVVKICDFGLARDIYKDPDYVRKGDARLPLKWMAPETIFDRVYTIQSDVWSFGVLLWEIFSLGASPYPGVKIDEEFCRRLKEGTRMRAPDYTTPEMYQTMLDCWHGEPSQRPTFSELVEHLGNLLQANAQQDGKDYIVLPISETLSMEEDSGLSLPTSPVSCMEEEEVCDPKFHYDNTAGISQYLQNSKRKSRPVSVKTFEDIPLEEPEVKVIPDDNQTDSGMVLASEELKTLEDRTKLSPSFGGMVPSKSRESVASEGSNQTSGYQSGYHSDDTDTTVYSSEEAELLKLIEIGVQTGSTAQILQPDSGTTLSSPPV
The target in assay [10] is T1, Vascular endothelial growth factor receptor 2. In words: Inhibition of human VEGFR-2 by ELISA method.
Assay [11] relates to HCT-116. Description: Anticancer activity against human HCT-116 cells. It counts as functional, cell-based.
The test system of assay [12] is MCF7. Description: Anticancer activity against human MCF7 cells. Type of assay: functional, cell-based.
In assay [13] the target is T1, Vascular endothelial growth factor receptor 2. Description: Inhibition of VEGFR-2 (unknown origin).
Assay [14] relates to HepG2. Description: Anticancer activity against human HepG2 cells. It counts as functional, cell-based.
For assay [15], the target named is T1, Vascular endothelial growth factor receptor 2. In words: Inhibition of VEGFR2 in human MCF7 cells by horseradish peroxidase-coupled TMB substrate based ELISA. It counts as cell-based.
For assay [16], the system named is MCF7. In words: Cytotoxicity against human MCF7 cells assessed as reduction in cell viability incubated for 48 hrs by SRB assay. Type of assay: functional, cell-based. To be noted: MCF7, 48 h. On the technique in general: In SRB staining, fixed cells bind dye roughly in proportion to their protein.
For assay [17], the system named is MCF7. Description: Antiproliferative activity against human MCF7 cells assessed as cell growth inhibition measured for 24 hrs by MTT assay. To be noted: MCF7, 24 h. Type of assay: functional, cell-based.
Assay [18] deals with HepG2. In words: Antiproliferative activity against human HepG2 cells assessed as cell growth inhibition measured for 24 hrs by MTT assay. It counts as functional, cell-based. To be noted: HepG2, 24 h.
For assay [19], the target named is T1, Vascular endothelial growth factor receptor 2. In words: Inhibition of GST-tagged human recombinant VEGFR2 at 10 uM using Poly(4:1 Glu, Tyr) as substrate by Kinase-Glo Max reagent based luminescence analysis relative to control.
Assay [20] deals with A549. In words: Cytotoxicity against human A549 cells assessed as reduction in cell growth incubated for 24 hrs by MTT assay. It counts as functional, cell-based. To be noted: A549, 24 h.
Assay [21] concerns NCI-H460. Description: Cytotoxicity against human NCI-H460 cells assessed as reduction in cell growth incubated for 24 hrs by MTT assay. It counts as functional, cell-based. To be noted: NCI-H460, 24 h.
Assay [22] has as its system MCF7. Description: Cytotoxicity against human MCF7 cells assessed as reduction in cell growth by MTT assay. Type of assay: functional, cell-based.
Assay [23] concerns HepG2. Description: Cytotoxicity against human HepG2 cells assessed as reduction in cell growth by MTT assay. It counts as functional, cell-based.
In assay [24] the test system is HCT-116. Description: Cytotoxicity against human HCT-116 cells assessed as reduction in cell growth by MTT assay. It counts as functional, cell-based.
For assay [25], the system named is MCF7. Description: Growth inhibition of human MCF7 cells. Type of assay: functional.
Assay [26] has as its system A549. In words: Antiproliferative activity against human A549 cells assessed as reduction in cell viability incubated for 48 hrs by MTT assay. To be noted: A549, 48 h. It counts as functional, cell-based.
In assay [27] the test system is HCT-116. Description: Antiproliferative activity against human HCT-116 cells assessed as reduction in cell viability incubated for 48 hrs by MTT assay. To be noted: HCT-116, 48 h. Type of assay: functional, cell-based.

As for `COc1ccc(-c2nn(-c3ccccc3)cc2/C=C2/S/C(=N\N=C(/C)c3nc4ccccc4[nH]3)N(c3ccc(Cl)cc3)C2=O)cc1`, the results for the IC50 in assay [1] and in assay [2] were 11 µg/mL (≈ 17.1 µM) and 5.84 µM, respectively.
Take `COc1cc(/C=C2/C=C(c3nc4ccccc4[nH]3)NC2=O)ccc1O`: the figures for the IC50 in [3], in [4] and in assay [5] were 7.3 µM, 8.7 µM and 9.6 µM, respectively.
Regarding `COc1cc(/C=C2/C=C(c3nc4ccccc4[nH]3)NC2=O)cc(OC)c1OC`, the half-maximal inhibitory concentration (IC50) in assay [3] turned out to be 7.2 µM; in [4], 7.7 µM; in [5], 8.3 µM.
As to `Cc1ccc2oc(SCCC(=O)Nc3nnc(-c4ccccc4)s3)nc2c1`, the IC50 in assay [6] was determined as 9.45 µM; in [7], 5.76 µM; in [8], 7.36 µM.
Take `O=[N+]([O-])c1ccc(CNc2cccc(-c3nc4ccccc4[nH]3)c2)cc1`: the values for the IC50 in assay [9], in [2] and in [10] were 0.0067 µM, 3.37 µM and 0.0067 µM, respectively.
Consider `O=C(CN1C(=O)S/C(=C\c2ccc(F)cc2)C1=O)Nc1nc2ccc([N+](=O)[O-])cc2s1`, for which the IC50 in [11] amounted to 5.61 µM; in assay [12] it was 3.84 µM; in assay [13] it was 0.091 µM; in [14], 7.92 µM.
Turning to `COc1cc(-c2nc3ccccc3s2)ccc1OCC(=O)N/N=C/c1ccc([N+](=O)[O-])cc1`, the IC50 came to 0.18 µM in assay [15] and 28.4 µM in assay [16].
As to `Cc1ccc2oc(SCC(=O)Nc3ccc(C(=O)Nc4ccc(O)cc4)cc3)nc2c1`, the values for the IC50 in assay [17] and in assay [18] were 18.2 µM and 7.01 µM, respectively.
Take `COC(=O)COc1ccc(/C=N/NC(=O)COc2ccc(-c3nc4ccccc4s3)cc2OC)cc1OC`: the results for the 50% inhibitory concentration (IC50) in assay [15] and in assay [16] were 0.13 µM and 21.9 µM, respectively.
On to `CCNC(=S)NS(=O)(=O)c1ccc(NC(=O)CCSc2nc3ccccc3o2)cc1`, for which the 50% inhibitory concentration (IC50) stood at 8.1 µM in assay [6], 7.91 µM in assay [7] and 12.3 µM in [8].
As to `COc1ccc(/C=N/N=C(/c2ccccc2)c2ccc3nc(-c4ccc(Cl)cc4)[nH]c3c2)cc1`, in assay [19], the inhibition was found to be 86.2%. Further, the IC50 in assay [20] worked out at 3.58 µM; in [21], 1.71 µM.
Regarding `COc1cc(/C=N/NC(=O)COc2ccc(-c3nc4ccccc4s3)cc2OC)ccc1O`, the IC50 in assay [15] is 0.17 µM; in assay [16], 6.58 µM.
Turning to `COc1cc(/C=N/NC(=O)c2nnn(Cc3nc4ccccc4[nH]3)c2C)ccc1O`, the half-inhibitory concentration (IC50) in [22] is 7.11 µM; in assay [23] it was 10.9 µM; in [13] it was 0.229 µM; in assay [24] it was 3.34 µM.
Take `O=[N+]([O-])c1ccc(NC(=S)Nc2cccc(-c3nc4ccccc4[nH]3)c2)cc1`: the half-inhibitory concentration (IC50) in assay [9] was 0.0089 µM; in assay [2], 5.84 µM; in assay [10], 0.0067 µM.
For the molecule `Clc1cccc(Cl)c1CNc1cccc(-c2nc3ccccc3[nH]2)c1`, the IC50 stood at 0.0069 µM in assay [9], 6.3 µM in assay [2] and 0.0067 µM in [10].
In turn, `COc1cc(/C=N/NC(=O)c2ccc(-c3nc4cc(C)ccc4[nH]3)cc2)cc(OC)c1OC` registered a GI in assay [25] of 84.33 µM.
In the case of `Cc1ccc2oc(SCCC(=O)Nc3ccc(S(=O)(=O)NC(=O)NC4CCCCC4)cc3)nc2c1`, the IC50 in [6] came out at 4.13 µM; in assay [7] it was 6.93 µM; in [8], 8.67 µM.
For the molecule `O=C(CCc1nnc2sc(-c3ccc(Br)cc3)nn12)c1nc2cc([N+](=O)[O-])ccc2[nH]1`, the IC50 in assay [26] came to 6.17 µM; in assay [27] it was 9.03 µM.
Take `Cc1ccc2oc(SCCC(=O)Nc3ccc(S(=O)(=O)NC(=O)Nc4ccccc4)cc3)nc2c1`: the IC50 was 6.58 µM in [6], 9.1 µM in assay [7] and 10.1 µM in assay [8].
